In patent US6566363B2, “Pyrazole-thiazole compounds, pharmaceutical compositions containing them” (Agouron Pharmaceuticals, Inc., priority 2000, dated 2003):
Counter-ions that a name gives are not always drawn.

Columns and labels:
CDK2/cyclin A = biological target: T1, CDK2/cyclin A (Homo sapiens, UniProt P24941); test: Inhibition of CDK2/Cyclin A retinoblastoma kinase activity; type: biochemical; details: for Ki: apparent Ki, Rb fragment substrate, 25 μM ATP
T1 construct: made in house; host or cells: CDK2: insect cells (baculovirus); cyclin A: E. coli, then limited proteolysis
Experimental: (§1) Cyclin-dependent kinase activity was measured by quantifying the enzyme-catalyzed, time-dependent incorporation of radioactive phosphate from [^32P]ATP or [^33P]ATP into a protein substrate. […] Reactions were initiated with enzyme, incubated at 30° C., and terminated after 20 minutes by the addition of ethylenediaminetetraacetic acid (EDTA) to 250 mM. […] Radioactivity was quantified by exposing the dried membranes to a phosphorimager.
(§2) Apparent Ki values were measured by assaying enzyme activity in the presence of different inhibitor compound concentrations and subtracting the background radioactivity measured in the absence of enzyme.
A complex of CDK2 and proteolyzed cyclin A was prepared and purified by gel filtration. […] Ki values were measured as described above.

CDK4/cyclin D3 = biological target: T2, CDK4/cyclin D3 (Homo sapiens, UniProt P11802); test: Inhibition of CDK4/Cyclin D retinoblastoma kinase activity; type: biochemical; details: for Ki: apparent Ki, Rb fragment substrate, 25 μM ATP
T2 construct: made in house; host or cells: insect cells co-infected with baculovirus expression vectors
T2 sequence (P11802 whole entry, the tested form may be a part): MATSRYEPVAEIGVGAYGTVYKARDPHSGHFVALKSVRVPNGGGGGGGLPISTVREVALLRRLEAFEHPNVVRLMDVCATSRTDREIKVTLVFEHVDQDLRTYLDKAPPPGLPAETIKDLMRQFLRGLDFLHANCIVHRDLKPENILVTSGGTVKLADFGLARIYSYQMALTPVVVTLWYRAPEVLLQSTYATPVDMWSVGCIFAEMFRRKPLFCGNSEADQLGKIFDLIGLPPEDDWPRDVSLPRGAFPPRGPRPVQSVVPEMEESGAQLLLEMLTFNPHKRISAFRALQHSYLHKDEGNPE
T2 sequence (P30281 whole entry partner, the tested form may be a part): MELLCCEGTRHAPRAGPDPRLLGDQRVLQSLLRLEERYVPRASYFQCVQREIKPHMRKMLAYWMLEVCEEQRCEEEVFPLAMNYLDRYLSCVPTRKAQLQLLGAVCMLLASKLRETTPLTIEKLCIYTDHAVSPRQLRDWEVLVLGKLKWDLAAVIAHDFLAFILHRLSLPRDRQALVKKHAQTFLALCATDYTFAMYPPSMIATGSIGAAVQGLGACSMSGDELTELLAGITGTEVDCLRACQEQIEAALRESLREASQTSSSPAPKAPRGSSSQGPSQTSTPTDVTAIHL
Experimental: as §1, §2
Phosphorylated Rb substrate was captured by microfiltration on a nitrocellulose membrane and quantified using a phosphorimager as described above. For measurement of tight-binding inhibitors, the enzyme complex concentration was lowered to 5 nM, and the assay duration was extended to 60 minutes, during which the time-dependence of product formation was linear.

HCT 116 cell line = test: Inhibition of cell growth, MTT tetrazolium salt assay; type: cell-based
Experimental: Inhibition of cell growth was measured using the tetrazolium salt assay, which is based on the ability of viable cells to reduce 3-(4,5-dimethylthiazol-2-yl)-2,5-[2H]-diphenyltetrazolium bromide (MTT) to formazan (Mossman, Journal of Immunological Methods, vol. 65 (1983), pp. 55-58). The water-insoluble purple formazan product was then detected spectrophotometrically. The HCT 116 cell line was grown in 96-well plates. Cells were plated in the appropriate medium at a volume of 135 μl/well in McCoy's 5A Medium. Plates were incubated for four hours before addition of inhibitor compounds. Different concentrations of inhibitor compounds were added in 0.5% (v/v) dimethylsulfoxide (15 μL/well), and cells were incubated at 37° C. (5% CO2) for four to six days (depending on cell type). At the end of the incubation, MTT was added to a final concentration of 0.2 mg/mL, and cells were incubated for 4 hours more at 37° C. After centrifugation of the plates and removal of medium, the absorbence of the formazan (solubilized in dimethylsulfoxide) was measured at 540 nm. The concentration of inhibitor compound causing 50% inhibition of growth was determined from the linear portion of a semi-log plot of inhibitor concentration versus percentage inhibition. All results were compared to control cells treated only with 0.5% (v/v) dimethylsulfoxide.

| Ki (CDK2/cyclin A) | Ki (CDK4/cyclin D3) | inhibition of HCT116 growth (entry in IC50 column) (HCT 116 cell line; @ 25 μm) | inhibition of CDK2/A (entry in Ki column) (CDK2/cyclin A; @ 1 μm) | inhibition of CDK4/D3 (entry in Ki column) (CDK4/cyclin D3; @ 1 μm) | IC50 (HCT 116 cell line; Homo sapiens, 144 h, HCT 116 cells, MTT, four to six days, read-out: IC50 HCT116) | Structure (SMILES) |
| --- | --- | --- | --- | --- | --- | --- |
| 1000 nM | 1600 nM |  |  |  |  | COc1ccc(Nc2nc3[nH]nc(-c4ccccc4)c3s2)cc1 [Compound 1, 5-(4-Methoxyphenylamino)-3-phenyl-1H-pyrazolo[4,5-d]thiazole Hydrobromic Acid Salt] |
|  |  | 16% @ 25 μm | 41% @ 1 μm | 18% @ 1 μm |  | NS(=O)(=O)c1ccc(Nc2nc3[nH]nc(-c4c(F)cccc4F)c3s2)cc1 [Compound 3, 3-(2,6-Difluorophenyl)-5-(4-sulfonamidophenylamino)-1H-pyrazolo [4,5-d]thiazole] |
| 34 nM | 390 nM |  |  |  | > 25000 nM | NS(=O)(=O)c1ccc(Nc2nc3[nH]nc(-c4ccccc4)c3s2)cc1 [Compound 2, 3-Phenyl-5-(4-sulfonamidophenylamino)-1H-pyrazolo[4,5-d]thiazole Hydrobromic Acid Salt] |
| 1600 nM | 170 nM |  |  |  |  | CN1CCN(c2ccc(Nc3nc4[nH]nc(-c5ccccc5)c4s3)cc2)CC1 [Compound 4, 5-[4-(4-Methyl-piperazin-1-yl)-phenylamino]-3-phenyl-1H-pyrazolo[4,5-d]thiazole Hydrobromic Acid Salt] |
